Data on one compound can be found in patent US8835395B2, “Protein peptide hydrogels” (Kansas State University Research Foundation, priority 2010, dated 2014).

Where a SMILES comes first, the peptide text is derived from it.

This data set is described as follows: Solubility of peptide in neutral water. Type of data set: physicochemical. The settings on record: neutral water without any pH adjustment.

Turning to `CC[C@H](C)[C@H](NC(=O)[C@H](CC(C)C)NC(=O)[C@@H](N)Cc1ccccc1)C(=O)N[C@H](C(=O)N[C@H](C(=O)N1CCC[C@H]1C(=O)N1CCC[C@@H]1C(=O)NCC(=O)N1CCC[C@H]1C(=O)NCC(=O)NCC(=O)N[C@@H](CC(=O)O)C(=O)NCC(=O)N1CCC[C@H]1C(=O)NCC(=O)NCC(=O)N[C@@H](CC(=O)O)C(=O)O)[C@@H](C)CC)C(C)C` [h5PP^De, FLIVI-PP^D-GPGGDGPGGD] (HELM PEPTIDE1{F.L.I.V.I.P.[dP].G.P.G.G.D.G.P.G.G.D}$$$$V2.0), the Solubility in water entry is on record as “soluble”.
